In article PMC2652713, “Molecular Blocking of CD23 Supports Its Role in the Pathogenesis of Arthritis” (PLoS ONE, 2009):

How the values were obtained:
[1] = system: human CD23; experiment: Flow cytometry, inhibition of anti-CD23-FITC McAb binding to human macrophages; conditions: human PBL-derived CD23+ macrophages, p30A 10 µg/ml pre-incubation, anti-CD23-FITC 20 µg/ml
Description: (§1) Figure 1 Specific blockade of CD23 reactivity by p30A. Flow cytometry analysis showing the inhibition of (A) anti-CD23-FITC (20 µg/ml) or (B) IgE (10 µg/ml)/anti-IgE-FITC (1 µg/ml) binding to CD23^+ human PBL-derived macrophages (red lines) or following their pre-incubation with p30A peptides (10 µg/ml) (blue lines). (C) CD23 western blot was performed on total protein extract from à CD23^+ B-cell line. The detection with CD23-McAb followed the pre-incubation of the blot with or without p30A (10 µg/ml). Similar protein quantity (50 µg) was used for each western blot condition.

[2] = Weight and intestinal bleeding in AIA rats; type: in vivo, rat, Female Lewis; conditions: 50 days, data not shown
Description: Adjuvant arthritis was induced in six week-old animals by subcutaneous injection at the base of the tail of 300 µl containing 1.8 mg of inactivated Mycobacterium butyricum (Difco Laboratories, Detroit, MI) diluted in emulsion of 8 ml Vaseline, 1 ml polysorbate 80, and 1 ml PBS (Phosphate Buffer Saline, Eurobio). Rats were boosted one week later following the same procedure. Observation was conducted for up to 50 days following immunization for clinical signs of arthritis. Rats were divided in different groups of 8 rats. Groups were treated with five injections (every 2 days) of either p30A (10, 50 or 100 mg in a PBS solution), pCtl, hydrocortisone (Sigma Aldrich) or PBS solution. Injections were initiated two days after the appearance of first arthritic symptoms (therapeutic) or on the first day of immunization (preventive). […] The severity of AIA in each paw was quantified daily using an ordinal clinical score measurement from 0 to 4 as follows: no signs of inflammation ( = 0); swelling alone (>2 fold paw diameter) ( = 1) or swelling/immobility ( = 2) of one paw; swelling ( = 3) or swelling/immobility ( = 4) of two paws. Weight evolution of rats was measured daily. […] Quantification of TNF-α and IL-1β in rat cell supernatants was performed using appropriate ELISA kits and according to manufacturer's recommendations (Biosource, Montrouge, France).

[3] = system: soluble and surface CD23; experiment: Interaction of p30A with soluble and surface CD23 (inferred); type: binding, human
Description: as §1
As control (pCtl), we have used synthetic heptapeptide with unrelated sequence (SFNYNYA).
Total cellular proteins were isolated from CD23^+, ADAM B-cell line in cell lysis buffer (10 mM Tris pH 8.0, 150 mM NaCl, 5 mM EDTA, 1% Triton X-100, 0.05% SDS, 10 mM Sodium Fluoride, 1 mM Sodium Orthovanadate, 5 µM Molibdic Acid) and a mixture of protease inhibitors (all from Sigma Aldrich, Saint Quentin Fallavier, France). Protein concentration was determined using the Bradford assay (Bio Rad, Hemel Hempstead, UK). Protein samples (50 µg total protein) were subjected to SDS-PAGE using a 12% resolving gel. […] Immunoreactive bands (CD23 and Bcl2) were detected using the FluorChem 8800 (Alpha Innotech, San Leandro, USA) and semi-quantified by densitometry using AlphaEase FC (Alpha Innotech).

[4] = system: human CD23+ monocyte-derived macrophages; experiment: Inflammatory gene transcription array in CD23-activated macrophages of healthy donors; type: cell-based
Description: Figure 3 Inhibition of inflammatory gene transcription by p30A in CD23-stimulated macrophages. Human CD23^+ monocyte-derived macrophages were incubated with cross-linking CD23-McAb (20 µg/ml) alone or following 1 h pre-incubation with 10 µg/ml of p30A. Controls, activated cells with/without p30A pre-incubation are figured. IL-1β, TNF-α and actin (ACT) mRNA location are indicated by arrows. Shown is one representative experiment out of three. TEXT PRINTED IN THE PICTURE: p30A: Expressed Genes: 28 / 114 (Activated + p30A)
Monocytes or macrophages were activated through CD23 pathway: while monocytes/macrophages from RA patients express CD23, monocytes from healthy donors must be pre-activated to express surface CD23 as described. This pre-activation was obtained by incubation of healthy monocytes with recombinant human IL-4 (20 ng/ml) during 48 h at 37°C; After washing, all cell populations were tested by flow cytometry for their surface CD23 expression (>80% CD23^+) and then incubated in the presence of cross-linking CD23-MAb (clones 135 or DM2, IgG1k, 20 µg/ml) during 48–72 h, or IgE and anti-IgE as described, [17]. When indicated, peptides were added to the cells 2 h prior to their activation. Cells supernatants were then analyzed for their nitric oxide content (see below) and for the presence of cytokines: levels of TNF-α and IL-6 were determined in duplicates for each sample by a specific ELISA (R&D, Paris, France) while levels of IL-1β, IL-8 and IL-10 was determined using FlowCytomix Human Th1/Th2 Kit as recommended (Bender Medsystems, Vienna, Austria).
Following cultures, total RNA was extracted using RNeasy kit (Qiagen, Hilden, Germany). Synthesis, purification and hybridization of biotin-labeled cRNA (6 µg) to custom array membranes were performed according to manufacturer's recommendations (Oligo GEArray® Human Inflammatory Cytokines and Receptors Microarray, ref OHS-011, Superarray Bioscience, Frederick, MD). After local background subtraction, average signal intensity from duplicate spots was compared to values obtained for housekeeping genes using AlphaImager HP automatic image capture software (Alpha-Innotec, San Leandro, CA). For each gene, modulation was defined as the relative expression value for stimulated vs. control sample.

[5] = system: human CD23; experiment: Flow cytometry, inhibition of IgE/anti-IgE-FITC binding to human CD23+ macrophages; conditions: p30A 10 µg/ml pre-incubation, IgE 10 µg/ml, anti-IgE-FITC 1 µg/ml
Description: as §1

Substance: FHENWPS [p30A]
- inhibition of FITC-conjugated anti-CD23 McAb binding [1]: inhibits the binding of FITC-conjugated anti-CD23 McAb
- intestinal bleeding [2]: neither intestinal bleeding was observed
- weight loss [2]: no weight loss
- binding to human CD23 [3]: specifically bound human and rat CD23
- affinity of interaction with soluble and surface CD23 relative to McAb or IgE-anti-IgE ([3]; authors' inference from Figure 1A-C, Kd not given): interacts with both soluble and surface CD23 forms with a higher affinity than specific McAb or IgE-anti-IgE immune complexes
- inhibition of expression of inflammatory mRNAs ([4]; CD23-activated macrophages of healthy donors): inhibits the expression of most of the above mRNAs
- expressed mRNAs: Chemokine Receptors ([4]; activated cells + p30A): CCR1, CCR5, CCR7, CXCR4
- expressed mRNAs: Chemokines Other subfamily members ([4]; activated cells + p30A): BCL6, BLR1, C3
- expressed mRNAs: Chemokines Subfamily A (Cys-Cys) ([4]; activated cells + p30A): CCL15, CCL17, CCL18, CCL19, CCL3, CCL4, CCL5
- expressed mRNAs: Interleukins and their Receptors ([4]; activated cells + p30A): IL10RA, IL10RB, IL11RA, IL17R, IL1R1, IL1R2, IL2RA, IL2RG, IL6R
- expressed mRNAs: Other related genes ([4]; activated cells + p30A): LTB4R, MIF
- expressed mRNAs: TNF Ligands and Receptors ([4]; activated cells + p30A): LTA (LT- α), LTB (LT-β), TNFRSF1B (TNFR2)
- number of expressed genes detected/114 ([4]; activated cells + p30A (10 µg/ml, 1 h pre-incubation; CD23-McAb 20 µg/ml), comparators: non activated cells 14, activated cells 53): 28
- block of IgE/anti-IgE-FITC binding [5]: block, on the one hand, the binding of IgE/anti-IgE-FITC to human CD23^+ macrophages
